According to publication PMC4452934 (CPT: Pharmacometrics & Systems Pharmacology, 2015):

Assay: Excretion in bile-duct cannulated rats
Assay type: in vivo, rat

- direct excretion in bile and urine: < 2 % of total clearance
SMILES: CCn1c(C(=O)N(C2CC2)C2CC2)cc2c3c(ncn3C)c(Nc3cc(C)n(C)n3)nc21 [BMS-911543]
